Data as given in patent US20210290557A1, “MULTI-PARTICULATE PHARMACEUTICAL COMPOSITION, IMMEDIATE RELEASE PELLETS, SUSTAINED RELEASE PELLETS, ENTERIC RELEASE PELLETS AND USE THEREOF” (Industrial Technology Research Institute, priority 2019, published 2021).

Assay: Solubility test for sobrerol in dissolution medium with different pH and purified water
Type: physicochemical
Method: 1. The Preparation of Dissolution Medium with Different pH Levels:
(1) Dissolution Medium with pH 2.5
7.164 g of disodium hydrogen phosphate (containing 12 molecules of water) was added to a 100 mL volumetric flask, then purified water was added to quantify to 100 mL, and then stirred using a stir bar. After the disodium hydrogen phosphate (containing 12 molecules of water) in the volumetric flask was completely dissolved, a 0.2 M disodium hydrogen phosphate solution was obtained.
19.213 g of anhydrous citric acid was assed to a 1 L volumetric flask, then purified water water was added to quantify to 1 L, and then stirred using a stir bar. After the anhydrous citric acid in the volumetric flask was completely dissolved, a 0.1 M citric acid solution was obtained.
Next, According to the list of formulas of McIlvaine buffer with different pH values, 0.2 M […] solution and 0.1 M citric acid solution were mixed at a ratio of 1.71:18.29 to obtain a dissolution medium with pH 2.5.
(2) Dissolution Medium with pH 4.5
15.6 g of Sodium dihydrogen phosphate (containing 2 molecules of water) was added to a 1 L volumetric flask, then purified water water was added to quantify to 1 L, and then stirred using a stir bar. After the sodium dihydrogen phosphate (containing 2 molecules of water) in the volumetric flask was completely dissolved, a phosphate dissolution medium with pH 4.5 was obtained.
(3) Dissolution Medium with pH 6.8
7.8 g of Sodium dihydrogen phosphate (containing 2 molecules of water) and 0.94 g of sodium hydroxide were added to a 1 L volumetric flask, then purified water water was added to quantify to 1 L, and then stirred using a stir bar. […]
250 mL of dissolution medium prepared above or purified water water was added to a beaker and a stir bar was added for stirring. […] Sobrerol was continuously added until sobrerol cannot be completely dissolved within 30 minutes, and then the total amount of sobrerol added was counted, that was, the actual solubility limit of sobrerol.

## CC1=CCC(C(C)(C)O)CC1O (stereo not drawn) [sobrerol]
250 mL dissolution medium with pH 2.5, 4.5, 6.8 or purified water, all media
  soluble amount of sobrerol (actual solubility limit): > 900 mg
Dissolution medium with different pH and purified water
  effect of pH on solubility of sobrerol: not affected by pH
Soluble amount compared with the daily total of 900 mg
  solubility classification according to FDA Biopharmaceutics Classification System guideline: meets the specifications for high solubility drugs
